Experimental data taken from patent US5972357A, “Healthy foods and cosmetics” (Kikkoman Corporation, priority 1996, dated 1999).

Columns and labels:
[1] = anti-oxidation activity (linoleic acid/β-carotene emulsion, autoxidation); details: 0.0005% test substance, pH 7.0, 25° C., 460 nm; lesser ratio = stronger
Description: The anti-oxidation activities was evaluated according to the method by A. Ben Aziz et al. […] That is to say, an emulsion of linoleic acid and β-carotene was first prepared with Tween 20 (Sigma) and adjusted to pH 7.0 with 0.1 M trishydroxyaminomethane-hydrochloride. […] During the reaction, the color degradation of β-carotene in association with the autoxidation of linoleic acid was measured with the passage of time as the decreased value of the optical density at 460 nm with a spectrophotometer. […] The antioxidant activity was measured as a ratio of the decreasing rate of absorbance in the presence of the substance to be tested to the decreasing rate of absorbance in the absence of the antioxidant.

[2] = tested on: bovine serum albumin; experiment: suppression of generation of reactive oxygen species in the presence of metal ion (oxidation of bovine serum albumin in Fenton reaction); assay type: biochemical; details: 1 mM test substance, 10 μM copper ion, 20 mM hydrogen peroxide, 4 mg/ml BSA
Description: The activity for suppressing the generation of reactive oxygen species in the presence of metal ion was evaluated by measuring the effect for suppressing the oxidation of bovine serum albumin by hydroxyl radical in the Fenton reaction system. That is to say, hydroxyl radical was first produced by divalent copper ion and hydrogen peroxide (Fenton reaction). Bovine serum albumin was oxidized by the hydroxyl radical, and thus carbonyl was produced. The carbonyl was reacted with 2,4-dinitrophenylhydrazine, and determined by measuring the absorbance at 365 nm. […] The ratio of decreases of absorbance was expressed as the activity for suppressing the generation of reactive oxygen species in the presence of metal ion.

[3] = tested on: Epstein-Barr virus early antigen (EBV-EA); experiment: EBV-EA induction inhibiting test (tumor promotion inhibition); assay type: cell-based, human lymphoblasts (Raji); details: Homo sapiens, Raji; 8 μg/ml; 3 mM n-butyric acid, 50 nM TPA, 37° C., 48 hours; read-out: suppression of the induction of EBV-EA
Description: The effect of inhibiting the tumor promotion was evaluated as follows mainly according to the EBV-EA induction inhibiting test described by Y. Ito et al.
(§1) The EBV potentially infected human lymphoblasts (Raji) were first prepared in a concentration of 5×10^5 cell/ml, and cultured in an RPMI-1640 medium to which 3 mM n-butyric acid (inducer) and 50 nM TPA (12-O-tetradecanoylphorbol-13-acetate) (promoter) were added in an atmosphere of 5% carbon dioxide and 95% air under at a temperature of 37° C. for 48 hours. The cells in which EBV-EA had been induced were detected microscopically by indirect immunofluorescence with the serum of a nasopharyngeal carcinoma (NPC) patient. In this system, various concentrations (8 μg/ml, 40 μg/ml, and 200 μg/ml) of the test substance (garcinol sample shown in Referential Example 1) dissolved in DMSO (dimethylsolfoxide) were added together with the promoter to the cells. The activity of suppressing the induction of the Epstein-Barr virus early antigen was defined as the decreasing rate of the cells in which EBV-EA had been induced.

[4] = survival rate of the cells in the EBV-EA induction inhibiting test; assay type: cell-based; details: human, raji cells, 8 μg/ml
Description: as §1

[5] = tested on: gastric ulcer; experiment: anti-ulcer test against stress ulcer (restrained immersion into water); assay type: in vivo, Wistar/ST male rats; details: 200 mg/kg oral
Description: Gastric ulcer was induced in Wistar/ST male rats having a weight of about 200 g (6 w) by the stress of restrained immersion into water and the anti-ulcer effects of the test samples were examined in the following groups to which test samples were administered.
Each group comprises six rats.
Group 1: (control) physiological saline
Group 2: (comparative) cetraxate hydrochloride 200 mg/kg
Group 3: (the present invention) garcinol 200 mg/kg
In this connection, the test samples in the control, comparative group and the present invention group were prepared in the same manner as in Experimental Example 9.
Rats having fasted for 24 hours were locked up in a restrained dipping cage after 30 minutes from the oral administration of respective test samples. Next, rats were stressed by dipping the cage into water at 23° C. for 7 hours, and bleeded to death under anesthetization with nembutal, and stomach was isolated. A phosphate buffer (10 ml) containing 10% formalin was injected into the stomach, which was cut open after 10 minutes, and the length of lesion caused in the glandular stomach portion was defined as the lesion index, which was measured in the mm unit to evaluate the anti-ulcer effect.
The method for calculating the suppression rate (%) and the meaning of it has been described in Experimental Example 9.

[6] = tested on: bovine serum albumin; experiment: Maillard reaction inhibiting activity (bovine serum albumin/D-fructose); details: 0.1 mM, 37° C., 5 days, pH 7.4
Description: A solution containing bovine serum albumin (4 mg/ml), 500 mM D-fructose and 200 mM potassium phosphate buffer (pH 7.4) was aseptically prepared. To the solution was added 0.1 mM of a test substance. The substance insoluble in water was added as an ethanolic solution so as the final concentration of ethanol to be less than 1%. After incubation of these solutions at 37° C. for 5 days, equivalent volume of a cold 10% trichloroacetic acid solution was added to the solution to precipitate proteins. The precipitate was collected by centrifugation, further washed with a cold 5% trichloroacetic acid solution, and dissolved again in a 200 mM potassium phosphate buffer. The solution was diluted appropriately with distilled water, and the fluorescence intensity at 425 nm was measured with an excitation wave length at 350 nm in a fluorescence spectrophotometer (Shimadzu Seisakusho, Ltd.). The inhibition activity was calculated from the following equation.
Inhibition activity (%)=(Fc-Fs)/(Fc-Fb)×100
Fs: fluorescence intensity in the presence of test substance;
Fc: fluorescence intensity in the absence of test substance;
Fb: fluorescence intensity in the absence of fructose.

## C=C(C)[C@@H](CC=C(C)C)C[C@@]12C[C@@H](CC=C(C)C)C(C)(C)[C@@](CC=C(C)C)(C(=O)C(C(=O)c3ccc(O)c(O)c3)=C1O)C2=O [garcinol]
[1]
  antioxidant activity (ratio of the decreasing rate of absorbance with to without test substance): 0.50
[2]
  ratio for suppressing the oxidation of bovine serum albumin: 55%
[3]
  inhibition at 8 µg/mL: 58.2%
[4]
  viability at 48 h: ≥ 80%
[5]; restrained water immersion 23° C., 7 hours, control 44.20 ± 18.10
  Length of ulcer: 17.60 ± 9.96 mm
[5]; stress ulcer, vs. control
  Suppression rate: 60.2%
[6]
  Maillard reaction inhibition activity: 97%
